Holding throughout (assay type): cell-based
Data set [1] concerns S. typhimutium. In words: Minimal bactericidal concentration (MBC). The following applies: Mueller Hinton, 18 hours of incubation. The protocol: (§1) The minimal bactericidal concentration (MBC) for each bacterial strain tested was determined as follows: The peptide was placed in a solution containing 0.01% acetic acid and 0.2% bovine serum albumin (BSA), then, serial dilutions of 2 in 2 are realized in the same 0.01% solution of acetic acid and 0.2% BSA. 10 μl of each dilution are incubated in sterile 96-well plates (Becton Dickinson, USA, ref: 18572) in the presence of 100 μl of a bacterial suspension brought to an optical density of 0.001 at 600 nm in the Mueller Hinton environment (MHB, SIGMA, ref: M-9677).
(§2) The bacterial growth is monitored after 18 hours of incubation under agitation. The MBC is determined by spreading out the content of the first three wells in which no bacterial growth was observed. This spreading out was carried out on Petri dishes on which an agar was poured prepared from the Mueller Hinton environment. These dishes were then incubated 18 hours. The MBC corresponds to the lowest concentration of peptide for which no bacterial colony was observed on the incubated dishes.

Data set [2] has as its system M. luteus. As to the kind of experiment: Minimal bactericidal concentration (MBC). The following applies: Mueller Hinton, 18 hours of incubation. The protocol:
as §1, §2

Data set [3] has as its system N. gonorrhoeae. As to the kind of experiment: Minimal bactericidal concentration (MBC). The following applies: Mueller Hinton, 18 hours of incubation. The protocol: as §1, §2
Data set [4] concerns E. aerogenes. As to the kind of experiment: Minimal bactericidal concentration (MBC). The note with it: Mueller Hinton, 18 hours of incubation. The protocol:
as §1, §2

Data set [5] relates to E. faecalis. In words: Minimal bactericidal concentration (MBC). The following applies: Mueller Hinton, 18 hours of incubation. Here is the method: as §1, §2
Data set [6] deals with P. aeruginosa. In words: Minimal bactericidal concentration (MBC). The note with it: Mueller Hinton, 18 hours of incubation. Here is the method: as §1, §2
Data set [7] relates to K. pneumoniae. As to the kind of experiment: Minimal bactericidal concentration (MBC). The note with it: Mueller Hinton, 18 hours of incubation. Here is the method: as §1, §2
Data set [8] concerns E. coli DH5α. In words: Minimal bactericidal concentration (MBC). The note with it: Mueller Hinton, 18 hours of incubation. The protocol: as §1, §2
Data set [9] has as its system A. viridans. In words: Minimal bactericidal concentration (MBC). The note with it: Mueller Hinton, 18 hours of incubation. Here is the method:
as §1, §2

The test system of data set [10] is B. megaterium. As to the kind of experiment: Minimal bactericidal concentration (MBC). The note with it: Mueller Hinton, 18 hours of incubation. Here is the method:
as §1, §2

For data set [11], the system named is S. aureus. In words: Minimal bactericidal concentration (MBC). The following applies: Mueller Hinton, 18 hours of incubation. The protocol:
as §1, §2

In data set [12] the test system is sheep erythrocytes. As to the kind of experiment: Hemolytic activity on sheep erythrocytes. Here is the method:
A known quantity of peptide was placed in a solution containing […] acetic acid and 0.2% bovine serum albumin (BSA) in such a manner as to obtain a stock solution with a concentration of […]; then, serial dilutions of this solution were realized in the same solution of 0.01% acetic acid and 0.2% BSA (AA-BSA). […] of each of these solutions or […] of a 10% Triton X-100 solution in PBS (control—peptide) were then added to 180 μl of a solution containing 2.5% (volume/volume) of the suspension of sheep erythrocytes in PBS. The mixture was then incubated 30 minutes at 37° C. then submitted to a centrifugation that 10000 g for 3 minutes. Finally, the supernatant was recovered and its absorbance measured at 600 nm. The percentage of hemolysis is then calculated with the following equation: % hemolysis=(A600 of the sample−A600 of control-peptide)/(A600 control 100% hemolysis−A600 control-peptide)×100.

Where no end group is shown, it is not given here.

On to FWGHIWNAVKRVGANALHGAVTGALS [halocyntin], for which the MBC (in general, the lowest tested concentration that kills the bacteria rather than only halting them) in data set [1] was 50 to 100 µM; in [2], 1.56 to 3.13 µM; in data set [3], 25 to 50 µM; in [4] it was 25 to 50 µM; in data set [5], 6.25 to 12.5 µM; in data set [6], more than 100 µM. The MBC fell in the range of 12.5 to 25 µM in data set [7]; 6.25 to 12.5 µM in [8]; 3.13 to 6.25 µM in data set [9]; 0.75 to 1.56 µM in data set [10]; 6.25 to 12.5 µM in [11]. In addition, the hemolytic activity entry was “very faint hemolytic activity” in data set [12] (beyond 12.5 mM); 5.8% in [12] (concentration of 50 μM, 30 minutes at 37° C.); “does not show any hemolytic activity” in data set [12] (up to concentrations of 12.5 mM).

Source of the values: US7439418B2, “Anti-microbial peptide known as halocyntin, gene coding for said peptide, vector, transformed organism and composition containing said peptide” (Centre National de la Recherche Scientifique - CNRS, priority 2003, dated 2008).
